These results are taken from PubChem BioAssay (NCI).

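Method: 48-hour compound exposure of cells in 96-well plates, five concentrations, linear interpolation of endpoints. Abbreviation: GI50, concentration required for 50% inhibition of growth. TGI marks complete inhibition of growth.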

Some test systems named below: A549 NSCLC; HCC-2998 colon; HCT-15 colon; HL-60(TB) leukemia; OVCAR-3 ovarian; SK-MEL-5 melanoma; SF-268 CNS; SK-MEL-2 melanoma.
Holding throughout (assay): NCI-60 cell line screen, 48 h

With `CC(C)c1ccc(C(c2ccc(OCC(=O)O)cc2)c2ccc(C(C)C)cc(=O)c2O)c(O)c(=O)c1`, the TGI worked out at 21.3 µM in the experiment on A549 NSCLC; 20.3 µM in the experiment with HCC-2998 colon; 22.9 µM with HCT-15 colon; 15 µM in the experiment on HL-60(TB) leukemia; 8.31 µM in the experiment on OVCAR-3 ovarian; 9.14 µM in the experiment on SK-MEL-5 melanoma.
Consider `CCCCOC(=O)NC(=O)c1cn(C2CCCCC2)c(=O)[nH]c1=O`, for which the TGI in the experiment with A549 NSCLC, with HCC-2998 colon, in the experiment with HCT-15 colon, with HL-60(TB) leukemia, in the experiment on OVCAR-3 ovarian and in the experiment on SF-268 CNS was above 100 µM throughout. The compound further showed a TGI in the experiment with SK-MEL-2 melanoma above 100 µM.
Consider `O=C(Nc1ccc(Cl)cc1Cl)C(=O)C(C(=O)c1ccncc1)C1OC(=O)c2ccccc21` (configuration not stated), for which the TGI with A549 NSCLC, in the experiment with HCC-2998 colon, with HCT-15 colon, with HL-60(TB) leukemia, in the experiment on OVCAR-3 ovarian and with SF-268 CNS was above 100 µM each time. In the experiment on SK-MEL-5 melanoma, this compound gave a TGI above 100 µM.
Take `CC(C)c1cc2c(O)c(c1)Cc1cc(C(C)C)cc(c1O)Cc1cc(C(C)C)cc(c1O)Cc1cc(C(C)C)cc(c1O)C2`: the TGI in the experiment on A549 NSCLC, in the experiment on HCT-15 colon, in the experiment on HL-60(TB) leukemia, with OVCAR-3 ovarian, in the experiment with SF-268 CNS and in the experiment on SK-MEL-2 melanoma was above 100 µM in each case. Also, the TGI in the experiment with SK-MEL-5 melanoma is above 100 µM.
As to `CC(=O)N1C/C(=C\c2ccc(N(C)C)cc2)C(=O)/C(=C/c2ccc(N(C)C)cc2)C1`, the TGI was above 100 µM in the experiment on A549 NSCLC; above 100 µM in the experiment on HCC-2998 colon; above 100 µM in the experiment with HCT-15 colon; above 100 µM in the experiment with HL-60(TB) leukemia; 56.3 µM in the experiment with OVCAR-3 ovarian; above 100 µM with SF-268 CNS. The TGI with SK-MEL-5 melanoma is above 100 µM.
As to `COC(=O)c1cc(C)c(C)c2c1NC(=O)CNC2=O`, the TGI in the experiment on A549 NSCLC, in the experiment on HCC-2998 colon, in the experiment on HCT-15 colon, in the experiment with HL-60(TB) leukemia, in the experiment on OVCAR-3 ovarian and with SK-MEL-2 melanoma was above 100 µM throughout.
As for `COC(C(O)c1ccc2c(c1)OCO2)P(=O)(c1ccccc1)c1ccccc1` (configuration not stated), the TGI was above 100 µM in the experiment with HL-60(TB) leukemia; 40.3 µM in the experiment on OVCAR-3 ovarian; above 100 µM in the experiment on SF-268 CNS; above 100 µM in the experiment on SK-MEL-2 melanoma; above 100 µM in the experiment on SK-MEL-5 melanoma.
With `Fc1ccc(C2SCc3nc4ccccc4n32)cc1Cl` (configuration not stated), the TGI in the experiment on A549 NSCLC is above 100 µM; in the experiment on HCC-2998 colon, 37.2 µM; in the experiment on HL-60(TB) leukemia, 47.6 µM; in the experiment on SF-268 CNS, above 100 µM.
`Cc1ccc(-c2cc(=O)c3cc(C)c(C)c(C(=O)O)c3o2)cc1C`: the TGI in the experiment with A549 NSCLC, in the experiment with HCC-2998 colon, in the experiment with HCT-15 colon, with HL-60(TB) leukemia, in the experiment with OVCAR-3 ovarian and with SK-MEL-2 melanoma was above 100 µM throughout. This compound also showed a TGI with SK-MEL-5 melanoma above 100 µM.
Regarding `CCc1ccc(Nc2ccc([N+](=O)[O-])cc2[N+](=O)[O-])cc1`, the TGI in the experiment on A549 NSCLC, in the experiment with HCC-2998 colon, with HCT-15 colon, with HL-60(TB) leukemia, in the experiment on OVCAR-3 ovarian and in the experiment with SK-MEL-2 melanoma was above 100 µM in each case. In addition, the TGI in the experiment with SK-MEL-5 melanoma is above 100 µM.
For `C/C=C1/C(=C/c2[nH]c(/C=c3\[nH]/c(=C/C4=NC(=O)C(CC)=C4C)c(C)c3CCC(=O)O)c(CCC(=O)O)c2C)NC(=O)C1C` (configuration not stated), the GI50 in the experiment with A549 NSCLC, in the experiment with HCC-2998 colon, in the experiment on HCT-15 colon, with HL-60(TB) leukemia, with SF-268 CNS and in the experiment with SK-MEL-2 melanoma was above 150 µg/mL throughout. Also, in the experiment with SK-MEL-5 melanoma, the GI50 was above 150 µg/mL. Besides, the TGI with A549 NSCLC, in the experiment on HCC-2998 colon, in the experiment with HCT-15 colon, in the experiment with HL-60(TB) leukemia, in the experiment on SF-268 CNS and in the experiment on SK-MEL-2 melanoma was above 150 µg/mL in each case. The compound further had a TGI in the experiment with SK-MEL-5 melanoma above 150 µg/mL.
Turning to `COC1=CC2(C=CC1=O)c1cc(OC)c(OC)cc1CCN2C(=O)c1ccccc1` (configuration not stated), the TGI in the experiment on A549 NSCLC, in the experiment on HCC-2998 colon, in the experiment with HCT-15 colon, with OVCAR-3 ovarian and in the experiment with SK-MEL-5 melanoma was above 100 µM throughout.
With `COc1ccc(/C=C\c2cc(OC)c(OC)c(OC)c2)cc1OC(=O)NCCN(C)C`, the GI50 was below 0.028 µM in the experiment on A549 NSCLC, below 0.0469 µM with HCC-2998 colon and 0.0336 µM with SF-268 CNS. In addition, the TGI is above 41.3 µM in the experiment on A549 NSCLC; 0.487 µM with HCC-2998 colon; 0.00338 µM with HL-60(TB) leukemia; 0.00347 µM in the experiment on OVCAR-3 ovarian; 0.0474 µM with SK-MEL-5 melanoma.
Regarding `CN(C)C(c1ccccc1)C(O)c1ccccc1` (configuration not stated), the TGI in the experiment on A549 NSCLC, in the experiment on HCC-2998 colon, in the experiment on HCT-15 colon, in the experiment with HL-60(TB) leukemia, in the experiment on OVCAR-3 ovarian and in the experiment with SF-268 CNS was above 100 µM each time. This compound also gave a TGI in the experiment on SK-MEL-2 melanoma above 100 µM.
